According to US12709738B2, “Compositions and methods for increasing the culture density of a cellular biomass within a cultivation infrastructure” (The Upside Group Inc., priority 2017, dated 2026):

Assays:
Format in all cases: cell-based
Bovine myoblasts [1] = assay: Cell count by bright field cell imaging after LPA, subconfluent and confluent cultures; settings: 96 well plate, LPA 0, 10 or 25 μM
Procedure: Bovine myoblasts were isolated from a bovine skeletal muscle tissue using the protocol described above. Isolated myoblasts were plated at a culture density of 2000 (subconfluent) or 10,000 (confluent) cells per well in a 96 well plate in triplicate wells. The cells were allowed to adhere for 24 hours, at which time LPA was added at a concentration of 0, 10 or 25 μM in the medium. Cells were subsequently harvested and counted by bright field cell imaging (Cytation 5 live cell imaging, analyzed with Lionheart software). […] Data shown are mean+/−SD. Significance was determined by the Student's T test.

Bovine myoblasts [2] = assay: Proliferation rate by EdU incorporation (FACS) after LPA; settings: 10 μM LPA, 24 hours; compared to vehicle-treated cells; FIG. 5
Procedure: In another experiment, bovine myoblasts were plated at a culture density of 10,000 cells per well in a 96 well plate in triplicate wells. The cells were allowed to adhere for 24 hours, when 10 μM LPA was added in the medium. Cells were subsequently harvested. After 24 hours, the proliferation rate was measured by EdU incorporation using a commercially available nucleoside pulse labeling kit such as the Click-iT-EdU kit (ThermoFisher). Briefly, cells were treated with 3 μM EdU, incubated at room temperature for 6 hours and detected according to the manufacturer's instructions, Cells were labeled with Alexa Fluor® 647 azide and analyzed using Fluorescence-Activated Cell Sorting (FACS) using 633 nm excitation and a 660/20 nm emission filter.

Bovine myoblasts [3] = assay: Differentiation to mature muscle cells by myogenin immunostaining; settings: LPA 10 or 25 μM added daily in serum-free medium
Procedure: Isolated bovine myoblasts were plated in a culture medium without adding serum at a culture density of 10,000 cells per well in a 96 well plate in triplicate wells. The cells were allowed to adhere for 24 hours, when LPA was added at a concentration of 0, 10 or 25 μM in serum-free medium. LPA was added daily until harvesting. Myogenin was used as a marker of differentiation to mature muscle cells. To determine the degree of differentiation to mature muscle cells, cultures were fixed in 4% paraformaldehyde for 10 min and then washed with PBS. Cells were incubated with PBS/0.2% BSA/0.1% Triton-X100 for 20 min followed by incubation with an anti-myogenin antibody (Abcam, mouse, 1/150) for 1 h at room temperature. After 3 washes with PBS/0.2% BSA, cells were incubated with secondary antibodies (goat anti-rabbit Alexa488, 1/800; goat anti-mouse Alexa555, 1/800, Invitrogen) for 30 min at room temperature. Nucleus was stained with DAPI.

For lysophosphatidic acid [LPA], which “increase of cells in the subconfluent culture” value (Bovine myoblasts [1]; 2000 cells per well, FIG. 4A) is on record?
The value was 309%.

What about the “increase of cells in the confluent culture” value (Bovine myoblasts [1]; 10,000 cells per well, FIG. 4B) of the same substance?
The value was 130%.

What about the “increase in percentage of cells in the S-phase” value (Bovine myoblasts [2]) of the same substance?
The value was 216%.

And the “expression of myogenin (marker of differentiation)” value (Bovine myoblasts [3])?
Its value is “reduced expression of myogenin”.
